Source: US20240374581A1, “SALT TYPES OF TRICYCLIC TETRAHYDRO ISOQUINOLINE DERIVATIVE” (JIANGSU HENGRUI PHARMACEUTICALS CO., LTD., priority 2021, published 2024)

Tests used:
[1] = Hygroscopicity study (DVS); format: physicochemical; conditions: 25° C.; for Hygroscopicity grade: 0% RH-80.0% RH; for Hygroscopicity 0% RH-80.0% RH / Hygroscopicity 0.0% RH-95.0% RH: DVS
Description: DVS refers to dynamic vapor sorption: The measurement was conducted on SMS DVS Advantage; at 25° C., the humidity was changed as follows: 50%-95%-0%-95%-50%, in steps of 10% (5% for the last step) (specific humidity ranges are shown in corresponding patterns, and those listed here were used in most cases); the criterion was dm/dt≤0.002%.
The measurement was conducted with a Surface Measurement Systems intrinsic at 25° C., starting from 50% humidity in humidity range of 0%-95%, in steps of 10%; the criterion was dM/dT≤0.002% and TMAX of 360 min in two cycles.

[2] = Long-term/accelerated stability; format: physicochemical; conditions: for Crystal form: up to 3 months; for physical and chemical stability (conclusion): long-term/accelerated study for 3 months
[3] = Influencing factor stability study; conditions: for physical and chemical stability (conclusion): influencing factors

## O=S(=O)(O)O.[2H]C1([2H])Oc2cc3c(cc2O1)[C@@H](c1ccc(NC2CN(CCCF)C2)cn1)N(CC(F)(F)CO)[C@H](C)C3 [Crystal form A of sulfate]
[1]
  Hygroscopicity grade: hygroscopic
  Crystal form after DVS: Deliquescence
  Hygroscopicity 0% RH-80.0% RH: 13.3%
  Hygroscopicity 0.0% RH-95.0% RH: 44.1%
[1]; listed as crystal form A
  Crystal form after DVS: deliquesced
[2]; 25° C./60% RH
  Purity (%) 1 month: 98.9%
  Purity (%) 2 months: 98.7%
  Purity (%) 3 months: 98.8%
  Purity (%) 7 days: 99.0%
  Purity (%) 14 days: 98.9%
  Purity (%) Initial: 98.9%
  Crystal form: Unchanged
[2]; 40° C./75% RH
  Purity (%) 1 month: 98.7%
  Purity (%) 2 months: 98.2%
  Purity (%) 3 months: 98.1%
  Purity (%) 7 days: 99.2%
  Purity (%) 14 days: 98.9%
  Purity (%) Initial: 98.9%
  Crystal form: Unchanged
[2]
  physical and chemical stability (conclusion): good physical and chemical stability
[3]; 40° C., 1 month
  Crystal form: Crystal form A
  Purity (%): 98.0%
[3]; 40° C., 5 days
  Crystal form: Crystal form A
  Purity (%): 98.8%
[3]; 40° C., 10 days
  Crystal form: Crystal form A
  Purity (%): 98.7%
[3]; 60° C., 1 month
  Crystal form: Crystal form A
  Purity (%): 97.3%
[3]; 60° C., 5 days
  Crystal form: Crystal form A
  Purity (%): 98.7%
[3]; 60° C., 10 days
  Crystal form: Crystal form A
  Purity (%): 98.6%
[3]; 75% RH and 92.5% RH, 30 days
  behaviour under the high-humidity conditions (conclusion): deliquesced
[3]; 75% RH, 1 month
  Crystal form: Deliquescence
  Purity (%): 94.8%
[3]; 75% RH, 5 days
  Crystal form: Deliquescence
  Purity (%): 97.8%
[3]; 75% RH, 10 days
  Crystal form: Deliquescence
  Purity (%): 96.6%
[3]; 92.5% RH, 1 month
  Crystal form: Deliquescence
  Purity (%): 95.1%
[3]; 92.5% RH, 5 days
  Crystal form: Deliquescence
  Purity (%): 98.1%
[3]; 92.5% RH, 10 days
  Crystal form: Deliquescence
  Purity (%): 97.3%
[3]; 4500 Lux, 1 month
  Crystal form: Crystal form A
  Purity (%): 92.9%
[3]; 4500 Lux, 5 days
  Crystal form: Crystal form A
  Purity (%): 97.4%
[3]; 4500 Lux, 10 days
  Crystal form: Crystal form A
  Purity (%): 96.0%
[3]; Initial, 0 days
  Crystal form: Crystal form A
  Purity (%): 98.9%
[3]; 30 days
  physical and chemical stability (conclusion): good physical and chemical stability under other conditions except the lighting condition

## O=P(O)(O)O.O=P(O)(O)O.O=P(O)(O)O.[2H]C1([2H])Oc2cc3c(cc2O1)[C@@H](c1ccc(NC2CN(CCCF)C2)cn1)N(CC(F)(F)CO)[C@H](C)C3 [Crystal form I of phosphate]
[1]
  Hygroscopicity grade: slightly
  Crystal form after DVS: Did not change
  Hygroscopicity 0% RH-80.0% RH: 1.2%
  Hygroscopicity 0.0% RH-95.0% RH: 7.1%
[1]; listed as crystal form I
  Crystal form after DVS: did not change
[2]; 25° C./60% RH
  Purity (%) 1 month: 99.3%
  Purity (%) 2 months: 99.3%
  Purity (%) 3 months: 99.2%
  Purity (%) 7 days: 99.4%
  Purity (%) 14 days: 99.5%
  Purity (%) Initial: 99.4%
  Crystal form: Unchanged
[2]; 40° C./75% RH
  Purity (%) 1 month: 99.3%
  Purity (%) 2 months: 99.2%
  Purity (%) 3 months: 99.0%
  Purity (%) 7 days: 99.5%
  Purity (%) 14 days: 99.5%
  Purity (%) Initial: 99.4%
  Crystal form: Unchanged
[2]
  physical and chemical stability (conclusion): good physical and chemical stability
[3]; 40° C., 1 month
  Crystal form: Crystal form I
  Purity (%): 99.1%
[3]; 40° C., 5 days
  Crystal form: Crystal form I
  Purity (%): 99.3%
[3]; 40° C., 10 days
  Crystal form: Crystal form I
  Purity (%): 99.1%
[3]; 60° C., 1 month
  Crystal form: Crystal form I
  Purity (%): 98.8%
[3]; 60° C., 5 days
  Crystal form: Crystal form I
  Purity (%): 99.1%
[3]; 60° C., 10 days
  Crystal form: Crystal form I
  Purity (%): 99.1%
[3]; 75% RH, 1 month
  Crystal form: Crystal form I
  Purity (%): 99.4%
[3]; 75% RH, 5 days
  Crystal form: Crystal form I
  Purity (%): 99.3%
[3]; 75% RH, 10 days
  Crystal form: Crystal form I
  Purity (%): 99.4%
[3]; 92.5% RH, 1 month
  Crystal form: Crystal form I
  Purity (%): 99.3%
[3]; 92.5% RH, 5 days
  Crystal form: Crystal form I
  Purity (%): 99.3%
[3]; 92.5% RH, 10 days
  Crystal form: Crystal form I
  Purity (%): 99.3%
[3]; 4500 Lux, 1 month
  Crystal form: Crystal form I
  Purity (%): 98.4%
[3]; 4500 Lux, 5 days
  Crystal form: Crystal form I
  Purity (%): 98.9%
[3]; 4500 Lux, 10 days
  Crystal form: Crystal form I
  Purity (%): 98.8%
[3]; Initial, 0 days
  Crystal form: Crystal form I
  Purity (%): 99.4%
[3]; 30 days
  physical and chemical stability (conclusion): good physical and chemical stability
